Where two headings read alike, the source gives them in different places.
Experiments:
[1] = test system: Eμ-myc lymphomas; conditions: cited from earlier work
[2] = test system: A431-sensitive cancer cell line; test: SILAC proteomic profiling of response to gefitinib

Structure (SMILES) | Phenotype: response to CTX ([1]; Eμ-Myc genotype) | Phenotype: response to CTX ([1]; Eμ-Myc/Arf −/− genotype (lymphoma lacking ARF)) | Phenotype: response to CTX ([1]; Eμ-Myc/Bcl2 genotype) | Phenotype: response to CTX ([1]; Eμ-Myc/p53 −/− genotype (lymphoma lacking p53)) | proteins showing a statistically significant change in abundance following treatment ([2]; A431 cells, SILAC) | potential cell-surface biomarkers showing changes in abundance in response to therapy ([2]; both in vitro and in vivo (xenograft)) | additional proteins showing changes in the secretome and serum ([2]; secretome and serum)
O=P1(N(CCCl)CCCl)NCCCO1 (stereo not shown) [CTX, cyclophosphamide] | variable response to CTX | slightly resistant to CTX | medium resistant to CTX | highly resistant to CTX |  |  | 
COc1cc2ncnc(Nc3ccc(F)c(Cl)c3)c2cc1OCCCN1CCOCC1 [geftinib, gefitinib] |  |  |  |  | 400 | Ten | seven

Source: patent publication US9141756B1, “Multi-scale complex systems transdisciplinary analysis of response to therapy” (University of Southern California, priority 2010, dated 2015)
